Reference: article PMC12321279, “Novel 4,5‐Dihydrothiazole‐Phenylpiperazine Derivatives: Synthesis, Docking Studies and Pharmacological Evaluation as Serotonergic Agents” (Chemmedchem, 2025)

Experiments:
mice [1] = experiment: Forced swim test (FST, Porsolt's test); format: in vivo
Description: (§1) The tests were performed on male white mice of the Albino Swiss strain, whose weight was between 24 and 30 g in Experimental Medicine Center, Medical University of Lublin, Poland. The animals were housed (four/five per cage). Before conducting the experimental tests, the animals were subjected to an adaptation that lasted seven days. This consisted of keeping them in a room with relatively constant conditions: a temperature of 22 ± 1 °C, a humidity of 55 ± 5% and lighting that mimicked the natural day and night rhythm (12 h/12 h). Constant access to food and water was provided. Standard feed—LSM Motycz pelleted feed—and tap water were used. Mice were randomly allocated to study groups. Each group was represented by 8–10 animals, depending on the research schedule. The experiments were performed according to the procedures set out in the regulations for animal experiments: National Institute of Health Guidelines for the Care and Use of Laboratory Animals (8th edition) and to the European Community Council Directive for the Care and Use of Laboratory Animals of 22 September 2010 (2010/63/EU). The study was approved by the Local Ethical Committee in Lublin (number of ethical approvals: 27/2023). Tested compounds: FG‐1, FG‐4, FG‐5, FG‐6, FG‐7, FG‐8, and FG‐18 were finely ground in mortars with the addition of the emulsifier Tween‐80. A suspension was obtained, which was then diluted with aqueous solution of 0.5% methylcellulose (tylose). The mixture was then administered intraperitoneally (i.p.) to the animals 60 min before the start of the experiments. Animals in the control groups received a 0.5% tylose solution. All substances were administered via the same route of administration in appropriate dose and volume of 0.1 mL per 10 g of animal body weight. Prior to the administration of the drug, the animals were weighed, during the interval between tests, they were provided with food, water, and constant living conditions.
The study was carried out using the test proposed by R. Porsolt.^[ [46] ^] The method is based on the observation of an animal forced to swim in a confined space from which there is no escape. After an initial period of vigorous attempts to get out, the animal finally gives up on escaping. The test consists of immersing the mouse individually in a cylinder (diameter 10 cm, height 25 cm) filled with water (at a temperature of 23–25 °C) to a height of 10 cm for 6 min. In this test, two parameters were measured: immobility time in seconds (s), understood as the state in which the mouse makes only those movements that are necessary to keep the head above water, and the latency to the first immobility (s). Measurements were taken during the last 4 min of the experiment, starting from the 2nd to the 6th minute. At the end of each session, the animals were removed from the cylinders, dried with a towel, and placed near a heater until completely dry. Antidepressants typically show increased latency and decreased immobility in this test.

mice [2] = experiment: Elevated plus maze test (EPM); format: in vivo
Description: as §1, with “conditions. The EPM test is performed using an apparatus developed by Lister;^[ [44] ^] it consists of two open arms (30 × 5 cm) and two enclosed arms (30 × 5 × 15 cm) and a central platform (5 × 5 cm) it is placed at a height of 45 cm from the floor. The labyrinth was made of Plexiglas. The experiments were conducted in a darkened and quiet room. The central square of the maze was evenly illuminated with a dull red light. In the test, the mouse is observed for 5 min, and the number of entries into the open and closed arms and the time spent in them are recorded. The person carrying out the experiment remains constantly in the same place. Entering an individual arm is considered when the mouse has placed all four limbs outside the central square. The experiment measures: 1) the time spent by the mouse into the open arms of the maze, expressed as a percentage of the total exploration time, 2) the number of entries into the open arms of the maze, expressed as a percentage of the total number of entrances to both types of arms, and 3) the total number of entries into all arms of the maze—as a locomotor activity of the animals. If the mouse spends more time in the open arms than in the closed arms, this indicates an anxiolytic effect of the compounds tested. Exposed arms pose a risk of falling and therefore act as a mild stressor. Anxious mice are more likely to switch between open and enclosed arms and spend more time in enclosed arms than less anxious mice.^[ [11], [17], [44], [45] ^]” for “conditions.”

[3] = 15 mg kg^−1 i.p. 60 min before test
[4] = 30 mg kg^−1 i.p. 60 min before test
[5] = 7.5 mg kg^−1 i.p. 60 min before test

Compound | FST, total duration of immobility (mice [1]; [3]) | FST, latency to first immobility (mice [1]; [4]) | FST, total duration of immobility (mice [1]; [4]) | EPM, percentage of the open arm entries (mice [2]; [4]) | EPM, percentage of time spent in open arms (mice [2]; [4]) | EPM, percentage of time spent in open arms (mice [2]; [3]) | also measured
O=C(NCCCN1CCN(c2ccccc2C2=NCCS2)CC1)c1ccccn1 [FG‐1, N‐(3‐(4‐(2‐(4,5‐dihydrothiazol‐2‐yl) phenyl) piperazin‐1‐yl) propyl) picolinamide] | significant decrease in immobility | significant increase in latency to first immobility | significant decrease in immobility | increase in the percentage of open arm entries | significant increase in time spent in open arms | – | –
O=C(NCCCN1CCN(c2cccc(C3=NCCS3)c2)CC1)c1ccncc1 [FG‐5, N‐(3‐(4‐(3‐(4,5‐dihydrothiazol‐2‐yl) phenyl) piperazin‐1‐yl) propyl) isonicotinamide] | significant decrease in immobility | significant increase in latency to first immobility | significant decrease in immobility | – | – | – | –
O=C(NCCCN1CCN(c2ccc(C3=NCCS3)cc2)CC1)c1ccncc1 [FG‐6, N‐(3‐(4‐(4‐(4,5‐dihydrothiazol‐2‐yl) phenyl) piperazin‐1‐yl) propyl) isonicotinamide] | significant decrease in immobility | – | – | – | – | significant increase in time spent in open arms | FST, latency to first immobility (mice [1]; [5]): significant increase in latency to first immobility; FST, total duration of immobility (mice [1]; [5]): significant decrease in immobility; FST, latency to first immobility (mice [1]; [3]): significant increase in latency to first immobility; EPM, percentage of the open arm entries (mice [2]; [5]): increase in the percentage of open arm entries; EPM, percentage of the open arm entries (mice [2]; [3]): increase in the percentage of open arm entries
O=C1C2C3C=CC(C3)C2C(=O)N1OCCCN1CCN(c2ccccc2C2=NCCS2)CC1 (centres unmarked) [FG‐7, 2‐(3‐(4‐(2‐(4,5‐dihydrothiazol‐2‐yl) phenyl) piperazin‐1‐yl) propoxy)‐3a,4,7,7a‐tetrahydro‐1 H‐4,7‐methanoisoindole‐1,3(2 H)‐dione] | – | – | – | increase in the percentage of open arm entries | – | significant increase in time spent in open arms | –
O=C1C2C3C=CC(C3)C2C(=O)N1OCCCN1CCN(c2cccc(C3=NCCS3)c2)CC1 (centres unmarked) [FG‐8, 2‐(3‐(4‐(3‐(4,5‐dihydrothiazol‐2‐yl) phenyl) piperazin‐1‐yl) propoxy)‐3a,4,7,7a‐tetrahydro‐1H‐4,7‐methanoisoindole‐1,3(2H)‐dione] | – | significant increase in latency to first immobility | significant decrease in immobility | – | – | – | –
O=C(NCCCN1CCN(c2ccc(C3=NCCS3)cc2)CC1)C1CC2C=CC1C2 (stereo not drawn) [FG‐18, Endo‐ N‐(3‐(4‐(4‐(4,5‐dihydrothiazol‐2‐yl)phenyl)piperazin‐1‐yl)propyl) bicyclo[2.2.1]hept‐5‐ene‐2‐carboxamide] | – | – | – | – | significant increase in time spent in open arms | – | –
